Experiments:
[1] = molecular target: T1, Histone deacetylase (Rattus norvegicus) (UniProt Q6P6W3+Q99P99+Q99P96+Q4QQW4+Q99P97+Q5RJZ2+B1WBY8); conditions: at 0.1 µM
Description: Inhibition of rat liver HDAC at 0.1 uM pre-incubated for 15 mins before Boc-Lys(Ac)-AMC substrate addition and measured after 30 mins by fluorometry

[2] = molecular target: T1, Histone deacetylase (Rattus norvegicus); conditions: at 10 µM
Description: Inhibition of rat liver HDAC at 10 uM pre-incubated for 15 mins before Boc-Lys(Ac)-AMC substrate addition and measured after 30 mins by fluorometry

[3] = molecular target: Histone deacetylase 9 (Homo sapiens, UniProt Q9UKV0); test: Inhibition of human HDAC9 pre-incubated for 30 mins before substrate addition and measured after 30 mins by HDAC-Glo I/II assay
[4] = molecular target: T2, Protein deacetylase HDAC6 (Homo sapiens, UniProt Q9UBN7); test: Inhibition of human HDAC6 pre-incubated for 30 mins before substrate addition and measured after 30 mins by HDAC-Glo I/II assay
T2 sequence (Q9UBN7 whole entry): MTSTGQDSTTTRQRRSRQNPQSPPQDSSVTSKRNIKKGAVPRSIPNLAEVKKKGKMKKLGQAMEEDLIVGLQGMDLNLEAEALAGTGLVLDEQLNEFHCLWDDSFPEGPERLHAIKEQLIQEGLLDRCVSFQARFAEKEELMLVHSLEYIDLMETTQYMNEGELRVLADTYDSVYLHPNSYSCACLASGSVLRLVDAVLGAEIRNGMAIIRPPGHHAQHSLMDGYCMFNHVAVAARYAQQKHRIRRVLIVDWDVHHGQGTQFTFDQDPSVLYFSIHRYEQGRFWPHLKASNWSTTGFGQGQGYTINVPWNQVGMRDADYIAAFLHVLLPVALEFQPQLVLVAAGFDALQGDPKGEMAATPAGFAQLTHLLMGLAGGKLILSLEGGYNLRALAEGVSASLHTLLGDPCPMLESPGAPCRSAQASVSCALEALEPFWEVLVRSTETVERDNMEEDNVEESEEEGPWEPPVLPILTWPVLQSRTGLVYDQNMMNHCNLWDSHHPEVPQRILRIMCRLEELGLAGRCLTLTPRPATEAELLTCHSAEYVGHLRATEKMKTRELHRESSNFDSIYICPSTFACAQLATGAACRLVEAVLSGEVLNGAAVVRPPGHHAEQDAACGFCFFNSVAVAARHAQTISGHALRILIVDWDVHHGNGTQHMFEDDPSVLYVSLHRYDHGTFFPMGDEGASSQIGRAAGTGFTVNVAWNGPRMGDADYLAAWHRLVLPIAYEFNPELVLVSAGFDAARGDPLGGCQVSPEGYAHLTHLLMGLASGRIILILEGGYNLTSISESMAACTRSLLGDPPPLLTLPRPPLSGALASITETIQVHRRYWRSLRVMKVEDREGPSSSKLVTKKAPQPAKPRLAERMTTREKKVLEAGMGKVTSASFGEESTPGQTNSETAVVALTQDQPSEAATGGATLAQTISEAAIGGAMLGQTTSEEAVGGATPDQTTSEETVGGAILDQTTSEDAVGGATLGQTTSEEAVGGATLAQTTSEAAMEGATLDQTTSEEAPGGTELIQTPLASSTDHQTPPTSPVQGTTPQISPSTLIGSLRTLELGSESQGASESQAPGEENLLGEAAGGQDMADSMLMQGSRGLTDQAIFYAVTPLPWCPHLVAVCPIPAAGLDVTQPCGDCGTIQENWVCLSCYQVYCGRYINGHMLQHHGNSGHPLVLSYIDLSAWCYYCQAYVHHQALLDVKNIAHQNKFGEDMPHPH

[5] = molecular target: Histone deacetylase 3 (Homo sapiens, UniProt O15379); test: Inhibition of human HDAC3 pre-incubated for 30 mins before substrate addition and measured after 30 mins by HDAC-Glo I/II assay
[6] = molecular target: Histone deacetylase 2 (Homo sapiens, UniProt Q92769); test: Inhibition of human HDAC2 pre-incubated for 30 mins before substrate addition and measured after 30 mins by HDAC-Glo I/II assay
[7] = molecular target: Histone deacetylase 4 (Homo sapiens, UniProt P56524); test: Inhibition of human HDAC4 pre-incubated for 30 mins before substrate addition and measured after 30 mins by HDAC-Glo I/II assay
[8] = molecular target: Histone deacetylase 1 (Homo sapiens, UniProt Q13547); test: Inhibition of human HDAC1 pre-incubated for 30 mins before substrate addition and measured after 30 mins by HDAC-Glo I/II assay
[9] = molecular target: T3, Histone deacetylase 8 (Homo sapiens, UniProt Q9BY41); test: Inhibition of human HDAC8 pre-incubated for 30 mins before substrate addition and measured after 30 mins by HDAC-Glo I/II assay
T3 sequence (Q9BY41 whole entry): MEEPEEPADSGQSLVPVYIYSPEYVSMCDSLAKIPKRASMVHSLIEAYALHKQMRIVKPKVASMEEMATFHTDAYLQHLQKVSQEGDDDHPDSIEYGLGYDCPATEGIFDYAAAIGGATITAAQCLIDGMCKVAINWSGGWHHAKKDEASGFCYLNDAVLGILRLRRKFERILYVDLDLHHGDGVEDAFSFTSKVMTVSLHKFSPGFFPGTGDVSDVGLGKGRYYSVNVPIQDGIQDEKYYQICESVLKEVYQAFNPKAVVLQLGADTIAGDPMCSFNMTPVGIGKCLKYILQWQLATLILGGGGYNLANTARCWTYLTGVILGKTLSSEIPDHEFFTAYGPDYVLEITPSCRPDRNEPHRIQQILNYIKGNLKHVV

Chain of Histone deacetylase 4 (P56524 whole entry): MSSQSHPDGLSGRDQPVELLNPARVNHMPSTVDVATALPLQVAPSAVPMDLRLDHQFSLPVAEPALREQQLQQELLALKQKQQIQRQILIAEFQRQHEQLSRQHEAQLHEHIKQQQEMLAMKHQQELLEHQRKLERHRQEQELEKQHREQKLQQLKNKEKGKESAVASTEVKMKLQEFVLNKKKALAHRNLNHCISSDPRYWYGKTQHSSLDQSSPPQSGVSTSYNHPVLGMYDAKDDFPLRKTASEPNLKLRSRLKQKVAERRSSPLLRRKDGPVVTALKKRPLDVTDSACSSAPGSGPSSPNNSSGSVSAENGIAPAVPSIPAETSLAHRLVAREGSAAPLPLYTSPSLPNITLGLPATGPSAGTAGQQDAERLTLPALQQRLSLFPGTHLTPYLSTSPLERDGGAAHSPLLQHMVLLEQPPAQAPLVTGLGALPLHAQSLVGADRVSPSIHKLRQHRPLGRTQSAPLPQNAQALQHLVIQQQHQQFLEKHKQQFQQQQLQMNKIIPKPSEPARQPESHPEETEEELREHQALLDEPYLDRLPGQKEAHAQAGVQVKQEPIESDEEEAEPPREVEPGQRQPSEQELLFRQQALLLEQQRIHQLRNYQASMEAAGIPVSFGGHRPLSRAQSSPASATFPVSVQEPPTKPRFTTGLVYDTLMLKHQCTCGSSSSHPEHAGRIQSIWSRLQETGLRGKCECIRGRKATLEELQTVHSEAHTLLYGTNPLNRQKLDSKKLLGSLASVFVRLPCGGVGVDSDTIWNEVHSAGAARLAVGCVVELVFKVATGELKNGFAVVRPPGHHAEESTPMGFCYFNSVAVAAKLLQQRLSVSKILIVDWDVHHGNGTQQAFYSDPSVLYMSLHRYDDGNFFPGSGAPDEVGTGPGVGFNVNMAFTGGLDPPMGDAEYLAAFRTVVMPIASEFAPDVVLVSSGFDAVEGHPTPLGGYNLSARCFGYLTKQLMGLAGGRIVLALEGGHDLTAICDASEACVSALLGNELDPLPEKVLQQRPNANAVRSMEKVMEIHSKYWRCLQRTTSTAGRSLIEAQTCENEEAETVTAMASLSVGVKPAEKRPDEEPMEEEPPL
Chain of Histone deacetylase 9 (Q9UKV0 whole entry): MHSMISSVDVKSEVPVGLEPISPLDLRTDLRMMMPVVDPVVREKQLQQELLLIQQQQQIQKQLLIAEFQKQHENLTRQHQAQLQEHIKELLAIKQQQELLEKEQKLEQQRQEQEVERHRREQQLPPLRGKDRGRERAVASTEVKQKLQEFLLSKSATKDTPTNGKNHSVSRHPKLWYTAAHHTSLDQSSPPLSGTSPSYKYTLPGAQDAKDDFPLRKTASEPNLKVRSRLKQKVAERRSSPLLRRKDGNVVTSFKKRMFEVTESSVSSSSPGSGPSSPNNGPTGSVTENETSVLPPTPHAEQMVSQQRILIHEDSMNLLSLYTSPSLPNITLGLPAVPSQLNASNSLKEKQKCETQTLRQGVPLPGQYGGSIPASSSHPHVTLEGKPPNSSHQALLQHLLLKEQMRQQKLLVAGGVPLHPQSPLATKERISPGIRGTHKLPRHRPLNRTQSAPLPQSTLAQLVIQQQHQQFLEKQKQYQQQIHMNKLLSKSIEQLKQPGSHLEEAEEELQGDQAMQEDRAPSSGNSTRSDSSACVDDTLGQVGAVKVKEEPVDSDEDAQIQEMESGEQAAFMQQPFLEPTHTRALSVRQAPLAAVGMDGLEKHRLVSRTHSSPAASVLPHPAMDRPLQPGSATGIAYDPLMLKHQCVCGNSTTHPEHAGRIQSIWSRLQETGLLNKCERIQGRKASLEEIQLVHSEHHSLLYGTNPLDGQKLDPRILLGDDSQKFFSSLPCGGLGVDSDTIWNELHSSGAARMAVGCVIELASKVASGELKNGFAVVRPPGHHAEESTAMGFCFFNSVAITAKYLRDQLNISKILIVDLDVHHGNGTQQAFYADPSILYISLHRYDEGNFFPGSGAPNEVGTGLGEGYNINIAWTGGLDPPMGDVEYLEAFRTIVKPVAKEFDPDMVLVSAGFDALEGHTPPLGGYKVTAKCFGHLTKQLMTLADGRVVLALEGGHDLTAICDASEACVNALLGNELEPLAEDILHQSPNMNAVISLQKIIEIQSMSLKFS
Chain of Histone deacetylase 1 (Q13547 whole entry): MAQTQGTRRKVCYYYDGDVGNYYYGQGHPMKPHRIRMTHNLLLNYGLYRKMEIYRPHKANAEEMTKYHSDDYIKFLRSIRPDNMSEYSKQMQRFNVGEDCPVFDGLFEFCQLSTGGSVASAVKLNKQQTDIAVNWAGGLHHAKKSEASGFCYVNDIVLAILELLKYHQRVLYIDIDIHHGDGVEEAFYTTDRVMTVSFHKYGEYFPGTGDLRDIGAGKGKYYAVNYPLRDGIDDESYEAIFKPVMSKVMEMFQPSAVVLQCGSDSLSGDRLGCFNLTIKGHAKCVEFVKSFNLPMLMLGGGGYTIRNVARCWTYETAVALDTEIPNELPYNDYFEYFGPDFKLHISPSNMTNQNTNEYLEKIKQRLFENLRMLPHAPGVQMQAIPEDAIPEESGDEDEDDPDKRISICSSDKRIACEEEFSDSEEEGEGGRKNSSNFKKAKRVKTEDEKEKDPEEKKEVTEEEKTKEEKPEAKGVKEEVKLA
Chain of Histone deacetylase 2 (Q92769 whole entry): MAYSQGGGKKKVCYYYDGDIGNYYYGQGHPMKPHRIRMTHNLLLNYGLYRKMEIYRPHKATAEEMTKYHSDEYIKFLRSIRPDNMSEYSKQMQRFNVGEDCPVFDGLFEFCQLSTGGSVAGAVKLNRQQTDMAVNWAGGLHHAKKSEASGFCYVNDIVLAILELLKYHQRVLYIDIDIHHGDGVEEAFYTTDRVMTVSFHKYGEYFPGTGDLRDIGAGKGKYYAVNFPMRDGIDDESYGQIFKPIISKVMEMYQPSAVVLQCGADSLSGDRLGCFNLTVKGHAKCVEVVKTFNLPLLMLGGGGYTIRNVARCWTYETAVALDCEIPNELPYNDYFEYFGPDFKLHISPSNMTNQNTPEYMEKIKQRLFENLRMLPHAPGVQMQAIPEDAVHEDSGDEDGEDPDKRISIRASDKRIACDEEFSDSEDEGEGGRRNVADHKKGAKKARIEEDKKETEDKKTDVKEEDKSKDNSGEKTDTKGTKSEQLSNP
Chain of Histone deacetylase 3 (O15379 whole entry): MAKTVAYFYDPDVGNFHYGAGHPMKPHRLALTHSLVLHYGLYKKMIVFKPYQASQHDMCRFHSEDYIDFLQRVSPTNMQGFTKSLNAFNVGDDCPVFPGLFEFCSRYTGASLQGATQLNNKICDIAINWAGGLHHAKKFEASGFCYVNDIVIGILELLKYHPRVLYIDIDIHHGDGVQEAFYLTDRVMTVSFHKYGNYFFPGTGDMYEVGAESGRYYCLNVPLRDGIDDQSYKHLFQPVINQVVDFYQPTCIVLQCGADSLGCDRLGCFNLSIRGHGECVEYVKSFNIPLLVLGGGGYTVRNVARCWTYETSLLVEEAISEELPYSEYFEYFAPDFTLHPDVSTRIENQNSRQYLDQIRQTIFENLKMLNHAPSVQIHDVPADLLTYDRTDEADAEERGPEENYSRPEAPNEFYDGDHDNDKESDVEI

inhibition [1] [%]	inhibition [2] [%]	IC50 [3] [nM]	IC50 [4] [nM]	IC50 [5] [nM]	IC50 [6] [nM]	IC50 [7] [nM]	IC50 [8] [nM]	IC50 [9] [nM]	SMILES
55	98	–	–	–	–	–	–	–	CN1C(=O)CC(C)(C)c2cc(NC(=O)CCCCCCC(=O)NO)ccc21
27	97	50	530	87	25	330	41	24	CC1(C)CC(=O)Nc2ccc(C(=O)NC[C@H]3CC[C@@H](CCC(=O)NO)CC3)cc21
19	94	–	–	–	–	–	–	–	O=C(CCCCCOc1ccc2[nH]c(=O)ccc2c1)NO
24	95	–	–	–	–	–	–	–	O=C(CCCCCC(=O)Nc1ccc2c(c1)CCC(=O)N2)NO
57	99	–	–	–	–	–	–	–	CC1(C)CC(=O)Nc2c(F)cc(C(=O)NCCCCCCC(=O)NO)cc21
11	88	–	–	–	–	–	–	–	CC1(C)CC(=O)Nc2ccc(OCCCCCC(=O)NO)cc21
63	99	41	86	98	90	86	89	72	Cn1c(=O)ccc2cc(C(=O)NCCCCCCC(=O)NO)ccc21
49	99	–	–	–	–	–	–	–	CC1(C)CC(=O)Nc2c(F)cc(NC(=O)CCCCCCC(=O)NO)cc21
50	99	120	130	28	100	280	43	59	CN1C(=O)CC(C)(C)c2cc(C(=O)NCCCCCCC(=O)NO)ccc21
46	98	–	–	–	–	–	–	–	O=C(CCCCCCC(=O)Nc1ccc2oc(=O)ccc2c1)NO
42	97	–	–	–	–	–	–	–	CCOC1=Nc2ccc(NC(=O)CCCCCCC(=O)NO)cc2C(C)(C)C1
55	98	5.2	58	15	8.2	58	3.8	6	CC1(C)CC(=O)Nc2ccc(C(=O)NC[C@H]3CC[C@H](/C=C/C(=O)NO)CC3)cc21
21	93	–	–	–	–	–	–	–	O=C(CCCCCOc1ccc2ccc(=O)[nH]c2c1)NO
40	98	–	–	–	–	–	–	–	O=C(CCCCCCCNC(=O)c1ccc2c(c1)CCC(=O)N2)NO
52	99	–	–	–	–	–	–	–	COC1=Nc2ccc(NC(=O)CCCCCCC(=O)NO)cc2C(C)(C)C1
63	99	–	–	–	–	–	–	–	CC1(C)CC(=O)Nc2cc(C(=O)NCCCCCCC(=O)NO)ccc21
70	100	34	40	28	170	78	52	80	COc1ccc2cc(C(=O)NCCCCCCC(=O)NO)ccc2n1
13	91	–	–	–	–	–	–	–	O=C(CCCCCOc1ccc2c(c1)CCC(=O)N2)NO
12	91	–	–	–	–	–	–	–	O=C(CCCCCOc1ccc2oc(=O)ccc2c1)NO
7	86	–	–	–	–	–	–	–	O=C(CCCCCOc1cccc2c1CCC(=O)N2)NO

inhibition [1] [%]	inhibition [2] [%]	IC50 [3] [nM]	IC50 [4] [nM]	IC50 [5] [nM]	IC50 [6] [nM]	IC50 [7] [nM]	IC50 [8] [nM]	IC50 [9] [nM]	SMILES
9	65	–	–	–	–	–	–	–	O=C(CCCOc1ccc2c(c1)CCC(=O)N2)NO
66	99	58	66	54	45	63	35	48	O=C(CCCCCCC(=O)Nc1ccc2[nH]c(=O)ccc2c1)NO
58	98	45	550	89	10	47	9.1	33	CC1(C)CC(=O)Nc2ccc(NC(=O)CCCCCCC(=O)NO)cc21
22	95	570	290	210	100	2000	670	200	CC1(C)CC(=O)Nc2ccc(C(=O)NCc3cccc(/C=C/C(=O)NO)c3)cc21
15	94	–	–	–	–	–	–	–	O=C(CCCCCCNS(=O)(=O)c1ccc2c(c1)CCC(=O)N2)NO
46	98	37	110	65	22	380	66	49	CC1(C)CC(=O)Nc2ccc(C(=O)NCc3ccc(/C=C/C(=O)NO)cc3)cc21
45	98	35	430	85	20	120	24	53	O=C(CCCCCCNC(=O)c1ccc2c(c1)CCC(=O)N2)NO
43	99	57	440	89	35	220	35	28	CC1(C)CC(=O)Nc2ccc(C(=O)NC[C@H]3CC[C@H](CCC(=O)NO)CC3)cc21
30	97	–	–	–	–	–	–	–	O=C(CCCCCCCC(=O)Nc1ccc2c(c1)CCC(=O)N2)NO
4	80	–	–	–	–	–	–	–	O=C(CCCCCOc1cccc2c1NC(=O)CC2)NO
21	94	–	–	–	–	–	–	–	O=C(CCCCCNC(=O)c1ccc2c(c1)CCC(=O)N2)NO
51	99	–	–	–	–	–	–	–	CN1C(=O)CCc2cc(C(=O)NCCCCCCC(=O)NO)ccc21
7	86	–	–	–	–	–	–	–	O=C(CCCCCOc1cccc2ccc(=O)[nH]c12)NO
17	94	–	–	–	–	–	–	–	CC1(C)CC(=O)Nc2ccc(S(=O)(=O)NCCCCCCC(=O)NO)cc21
22	92	91	720	370	310	750	190	21	CC1(C)CC(=O)Nc2ccc(C(=O)NC[C@H]3CC[C@@H](/C=C/C(=O)NO)CC3)cc21
11	91	–	–	–	–	–	–	–	CC1(C)CC(=O)Nc2cc(OCCCCCC(=O)NO)ccc21
18	94	–	–	–	–	–	–	–	O=C(CCCCCCNS(=O)(=O)c1ccc2[nH]c(=O)ccc2c1)NO
11	91	–	–	–	–	–	–	–	O=C(CCCCCCS(=O)(=O)Nc1ccc2c(c1)CCC(=O)N2)NO
13	91	–	–	–	–	–	–	–	O=C(CCCCCOc1ccc2c(c1)NC(=O)CC2)NO
27	96	–	–	–	–	–	–	–	CC1(C)CC(=O)Nc2cc(C(=O)NCc3cccc(/C=C/C(=O)NO)c3)ccc21

From ChEMBL document CHEMBL3351757, “Design and synthesis of novel and highly-active pan-histone deacetylase (pan-HDAC) inhibitors” (Bioorg Med Chem, 2014)
